Laboratory results published in patent publication US20250186541A1, “DLL3 TARGETING PEPTIDES AND CONSTRUCTS THEREOF” (MARIANA ONCOLOGY INC., priority 2023, published 2025).
pKd: −log10 of the molar value. Bridge positions count the residues as written; N and C are the ends. Square brackets hold non-standard residues; d marks the D form. Peptide text beside a SMILES is read from it. * marks the point of attachment. DOTA = O=C(O)CN1CCN(CC(=O)O)CCN(CC(=O)*)CCN(CC(=O)O)CC1; Phe(4-CF3) = N[C@@H](Cc1ccc(C(F)(F)F)cc1)C(=O)O; Phe(4-COOH) = N[C@@H](Cc1ccc(C(=O)O)cc1)C(=O)O; Bip = N[C@@H](Cc1ccc(-c2ccccc2)cc1)C(=O)O; Phe(3-F) = N[C@@H](Cc1cccc(F)c1)C(=O)O; Phe(4-F) = N[C@@H](Cc1ccc(F)cc1)C(=O)O; 1Nal = N[C@@H](Cc1cccc2ccccc12)C(=O)O; 2Nal = N[C@@H](Cc1ccc2ccccc2c1)C(=O)O; Carboxymethyl = O=C(O)C*; Nva = CCC[C@H](N)C(=O)O; Ahx = NCCCCCC(=O)O

Target: T1, human DLL3 (Homo sapiens, UniProt Q9NYJ7)
T1 construct: biotin (biotinylated)
T1 sequence (Q9NYJ7 27-618): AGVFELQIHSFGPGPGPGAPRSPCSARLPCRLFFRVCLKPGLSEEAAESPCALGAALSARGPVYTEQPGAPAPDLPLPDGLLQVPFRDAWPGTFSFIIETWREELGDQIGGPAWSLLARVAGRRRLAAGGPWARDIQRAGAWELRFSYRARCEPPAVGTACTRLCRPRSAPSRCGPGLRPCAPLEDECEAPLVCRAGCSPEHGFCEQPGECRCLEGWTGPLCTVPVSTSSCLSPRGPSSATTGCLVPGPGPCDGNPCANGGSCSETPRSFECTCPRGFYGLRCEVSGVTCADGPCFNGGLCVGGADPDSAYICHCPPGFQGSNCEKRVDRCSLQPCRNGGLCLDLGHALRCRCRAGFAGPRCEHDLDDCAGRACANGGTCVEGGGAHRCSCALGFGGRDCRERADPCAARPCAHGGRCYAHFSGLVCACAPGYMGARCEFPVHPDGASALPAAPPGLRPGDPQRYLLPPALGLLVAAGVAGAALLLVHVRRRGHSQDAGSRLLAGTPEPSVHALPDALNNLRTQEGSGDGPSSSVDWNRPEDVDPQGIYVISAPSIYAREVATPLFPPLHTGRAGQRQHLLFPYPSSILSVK
Assay: Affinity determination by Surface Plasmon Resonance (SPR), Biacore, 1:1 binding model
Conditions: biotinylated human DLL3 on streptavidin chip, 25° C.; NB = nonbinding
Method: Example 3. Binding Affinity of Targeting Moieties Polypeptides to DLL3 Affinity Determination by Surface Plasmon Resonance (SPR)
SPR studies were performed on the compounds disclosed herein using the following protocol. […] Biotinylated target ligand human DLL3 was immobilized on a streptavidin sensor chip. A reference surface was set up for nonspecific binding and refractive index changes. For analysis of the kinetics of interactions, varying concentrations of samples were injected at a flow rate of 100 μL/min using running buffer containing 20 mM phosphate buffer with 2.7 mM KCl, 137 mM NaCl, 0.05% Surfactant P20 and 2% DMSO. Sensorgram curves were fitted with 1:1 binding model, and affinity and kinetic parameters were obtained using Biacore Insight evaluation 4.0. software.

Row | pKd | Compound
1 | < 7.00 | CSCC[C@H](NC(C)=O)C(=O)N[C@@H](CO)C(=O)N[C@@H](CC(=O)O)C(=O)N[C@H]1CSSC[C@@H](C(=O)N2CCC[C@H]2C(=O)N[C@@H](Cc2ccccc2)C(=O)N[C@@H](CC(=O)O)C(N)=O)NC(=O)[C@H](C)NC(=O)[C@H](Cc2c[nH]c3ccccc23)NC(=O)[C@H](CCC(N)=O)NC(=O)[C@H](CC(C)C)NC(=O)[C@H](Cc2c[nH]c3ccccc23)NC1=O [compound 26, Ac-M-S-D-C(3)-W-L-Q-W-(L-Ala)-C(3)-P-F-D-CONH2] (Ac-MSDCWLQWACPFD-NH2; disulfide 4-10)
2 | < 7.00 | CSCC[C@H](NC(C)=O)C(=O)N[C@@H](CO)C(=O)N[C@@H](CC(=O)O)C(=O)N[C@H]1CSSC[C@@H](C(=O)N[C@@H](C)C(=O)N[C@@H](Cc2ccccc2)C(=O)N[C@@H](CC(=O)O)C(N)=O)NC(=O)[C@H](CC(N)=O)NC(=O)[C@H](Cc2c[nH]c3ccccc23)NC(=O)[C@H](CCC(N)=O)NC(=O)[C@H](CC(C)C)NC(=O)[C@H](Cc2c[nH]c3ccccc23)NC1=O [compound 27, Ac-M-S-D-C(3)-W-L-Q-W-N-C(3)-(L-Ala)-F-D-CONH2] (Ac-MSDCWLQWNCAFD-NH2; disulfide 4-10)
3 | < 7.00 | CSCC[C@H](NC(C)=O)C(=O)N[C@@H](CO)C(=O)N[C@@H](CC(=O)O)C(=O)N[C@H]1CSSC[C@@H](C(=O)N2CCC[C@H]2C(=O)N[C@@H](C)C(=O)N[C@@H](CC(=O)O)C(N)=O)NC(=O)[C@H](CC(N)=O)NC(=O)[C@H](Cc2c[nH]c3ccccc23)NC(=O)[C@H](CCC(N)=O)NC(=O)[C@H](CC(C)C)NC(=O)[C@H](Cc2c[nH]c3ccccc23)NC1=O [compound 28, Ac-M-S-D-C(3)-W-L-Q-W-N-C(3)-P-(L-Ala)-D-CONH2] (Ac-MSDCWLQWNCPAD-NH2; disulfide 4-10)
4 | < 7.00 | CSCC[C@H](NC(C)=O)C(=O)N[C@@H](CO)C(=O)N[C@@H](CC(=O)O)C(=O)N[C@H]1CSSC[C@@H](C(=O)N2CCC[C@H]2C(=O)N[C@@H](Cc2ccccc2)C(=O)N[C@@H](C)C(N)=O)NC(=O)[C@H](CC(N)=O)NC(=O)[C@H](Cc2c[nH]c3ccccc23)NC(=O)[C@H](CCC(N)=O)NC(=O)[C@H](CC(C)C)NC(=O)[C@H](Cc2c[nH]c3ccccc23)NC1=O [compound 29, Ac-M-S-D-C(3)-W-L-Q-W-N-C(3)-P-F-(L-Ala)-CONH2] (Ac-MSDCWLQWNCPFA-NH2; disulfide 4-10)
5 | 7.55 | CCC[C@H](NC(C)=O)C(=O)N[C@@H](CO)C(=O)N[C@@H](CC(=O)O)C(=O)N[C@H]1CSSC[C@@H](C(=O)N2CCC[C@H]2C(=O)N[C@@H](Cc2ccccc2)C(=O)N[C@@H](CC(=O)O)C(=O)N[C@H](CCCCNC(=O)CN2CCN(CC(=O)O)CCN(CC(=O)O)CCN(CC(=O)O)CC2)C(N)=O)NC(=O)[C@H](CC(N)=O)NC(=O)[C@H](Cc2c[nH]c3ccccc23)NC(=O)[C@H](CCC(N)=O)NC(=O)[C@H](CC(C)C)NC(=O)[C@H](Cc2c[nH]c3ccccc23)NC1=O [compound 32, Ac-Nva-S-D-C(3)-W-L-Q-W-N-C(3)-P-F-D-D-Lys(DOTA)-CONH2] (Ac-[Nva]SDCWLQWNCPFD[dK](DOTA)-NH2; disulfide 4-10)
6 | < 6.52 | CC(C)C[C@@H]1NC(=O)[C@H](Cc2c[nH]c3ccccc23)NC(=O)[C@@H](NC(=O)[C@H](CC(=O)O)NC(=O)[C@H](CO)NC(=O)CCCCCNC(=O)CN2CCN(CC(=O)O)CCN(CC(=O)O)CCN(CC(=O)O)CC2)CSSC[C@@H](C(=O)N2CCC[C@H]2C(=O)N[C@@H](Cc2ccc(F)cc2)C(=O)N[C@@H](CC(=O)O)C(N)=O)NC(=O)[C@H](CC(N)=O)NC(=O)[C@H](Cc2c[nH]c3ccccc23)NC(=O)[C@H](CCC(N)=O)NC1=O [compound 33, DOTA-Ahx-S-D-C(3)-W-L-Q-W-N-C(3)-P-(4Fluoro-F)-D-CONH2] ({DOTA-Ahx}-SDCWLQWNCP[Phe(4-F)]D-NH2; disulfide 3-9)
7 | < 6.52 | CC(C)C[C@@H]1NC(=O)[C@H](Cc2c[nH]c3ccccc23)NC(=O)[C@@H](NC(=O)[C@H](CC(=O)O)NC(=O)[C@H](CO)NC(=O)CCCCCNC(=O)CN2CCN(CC(=O)O)CCN(CC(=O)O)CCN(CC(=O)O)CC2)CSSC[C@@H](C(=O)N2CCC[C@H]2C(=O)N[C@@H](Cc2ccc(C(F)(F)F)cc2)C(=O)N[C@@H](CC(=O)O)C(N)=O)NC(=O)[C@H](CC(N)=O)NC(=O)[C@H](Cc2c[nH]c3ccccc23)NC(=O)[C@H](CCC(N)=O)NC1=O [compound 34, DOTA-Ahx-S-D-C(3)-W-L-Q-W-N-C(3)-P-(4CF3-F)-D-CONH2] ({DOTA-Ahx}-SDCWLQWNCP[Phe(4-CF3)]D-NH2; disulfide 3-9)
8 | < 7.00 | CC(C)C[C@@H]1NC(=O)[C@H](Cc2c[nH]c3ccccc23)NC(=O)[C@@H](NC(=O)[C@H](CC(=O)O)NC(=O)[C@H](CO)NC(=O)CCCCCNC(=O)CN2CCN(CC(=O)O)CCN(CC(=O)O)CCN(CC(=O)O)CC2)CSSC[C@@H](C(=O)N2CCC[C@H]2C(=O)N[C@@H](Cc2ccc(C(=O)O)cc2)C(=O)N[C@@H](CC(=O)O)C(N)=O)NC(=O)[C@H](CC(N)=O)NC(=O)[C@H](Cc2c[nH]c3ccccc23)NC(=O)[C@H](CCC(N)=O)NC1=O [compound 35, DOTA-Ahx-S-D-C(3)-W-L-Q-W-N-C(3)-P-(4COOH-F)-D-CONH2] ({DOTA-Ahx}-SDCWLQWNCP[Phe(4-COOH)]D-NH2; disulfide 3-9)
9 | 7.80 | CC(C)C[C@@H]1NC(=O)[C@H](Cc2c[nH]c3ccccc23)NC(=O)[C@@H](NC(=O)[C@H](CC(=O)O)NC(=O)[C@H](CO)NC(=O)CCCCCNC(=O)CN2CCN(CC(=O)O)CCN(CC(=O)O)CCN(CC(=O)O)CC2)CSSC[C@@H](C(=O)N2CCC[C@H]2C(=O)N[C@@H](Cc2cccc(F)c2)C(=O)N[C@@H](CC(=O)O)C(N)=O)NC(=O)[C@H](CC(N)=O)NC(=O)[C@H](Cc2c[nH]c3ccccc23)NC(=O)[C@H](CCC(N)=O)NC1=O [compound 36, DOTA-Ahx-S-D-C(3)-W-L-Q-W-N-C(3)-P-(3Fluoro-F)-D-CONH2] ({DOTA-Ahx}-SDCWLQWNCP[Phe(3-F)]D-NH2; disulfide 3-9)
10 | < 7.00 | CC(C)C[C@@H]1NC(=O)[C@H](Cc2c[nH]c3ccccc23)NC(=O)[C@@H](NC(=O)[C@H](CC(=O)O)NC(=O)[C@H](CO)NC(=O)CCCCCNC(=O)CN2CCN(CC(=O)O)CCN(CC(=O)O)CCN(CC(=O)O)CC2)CSSC[C@@H](C(=O)N2CCC[C@H]2C(=O)N[C@@H](Cc2ccc(OCC(=O)O)cc2)C(=O)N[C@@H](CC(=O)O)C(N)=O)NC(=O)[C@H](CC(N)=O)NC(=O)[C@H](Cc2c[nH]c3ccccc23)NC(=O)[C@H](CCC(N)=O)NC1=O [compound 37, DOTA-Ahx-S-D-C(3)-W-L-Q-W-N-C(3)-P-(4-CMF)-D-CONH2] ({DOTA-Ahx}-SDCWLQWNCPY(Carboxymethyl)D-NH2; disulfide 3-9)
11 | < 6.52 | CC(C)C[C@@H]1NC(=O)[C@H](Cc2c[nH]c3ccccc23)NC(=O)[C@@H](NC(=O)[C@H](CC(=O)O)NC(=O)[C@H](CO)NC(=O)CCCCCNC(=O)CN2CCN(CC(=O)O)CCN(CC(=O)O)CCN(CC(=O)O)CC2)CSSC[C@@H](C(=O)N2CCC[C@H]2C(=O)N[C@@H](Cc2ccc(-c3ccccc3)cc2)C(=O)N[C@@H](CC(=O)O)C(N)=O)NC(=O)[C@H](CC(N)=O)NC(=O)[C@H](Cc2c[nH]c3ccccc23)NC(=O)[C@H](CCC(N)=O)NC1=O [compound 38, DOTA-Ahx-S-D-C(3)-W-L-Q-W-N-C(3)-P-(BIP)-D-CONH2] ({DOTA-Ahx}-SDCWLQWNCP[Bip]D-NH2; disulfide 3-9)
12 | < 7.00 | CC(C)C[C@@H]1NC(=O)[C@H](Cc2c[nH]c3ccccc23)NC(=O)[C@@H](NC(=O)[C@H](CC(=O)O)NC(=O)[C@H](CO)NC(=O)CCCCCNC(=O)CN2CCN(CC(=O)O)CCN(CC(=O)O)CCN(CC(=O)O)CC2)CSSC[C@@H](C(=O)N2CCC[C@H]2C(=O)N[C@@H](Cc2cccc3ccccc23)C(=O)N[C@@H](CC(=O)O)C(N)=O)NC(=O)[C@H](CC(N)=O)NC(=O)[C@H](Cc2c[nH]c3ccccc23)NC(=O)[C@H](CCC(N)=O)NC1=O [compound 39, DOTA-Ahx-S-D-C(3)-W-L-Q-W-N-C(3)-P-(1Nal)-D-CONH2] ({DOTA-Ahx}-SDCWLQWNCP[1Nal]D-NH2; disulfide 3-9)
13 | < 6.52 | CC(C)C[C@@H]1NC(=O)[C@H](Cc2c[nH]c3ccccc23)NC(=O)[C@@H](NC(=O)[C@H](CC(=O)O)NC(=O)[C@H](CO)NC(=O)CCCCCNC(=O)CN2CCN(CC(=O)O)CCN(CC(=O)O)CCN(CC(=O)O)CC2)CSSC[C@@H](C(=O)N2CCC[C@H]2C(=O)N[C@@H](Cc2ccc3ccccc3c2)C(=O)N[C@@H](CC(=O)O)C(N)=O)NC(=O)[C@H](CC(N)=O)NC(=O)[C@H](Cc2c[nH]c3ccccc23)NC(=O)[C@H](CCC(N)=O)NC1=O [compound 40, DOTA-Ahx-S-D-C(3)-W-L-Q-W-N-C(3)-P-(2Nal)-D-CONH2] ({DOTA-Ahx}-SDCWLQWNCP[2Nal]D-NH2; disulfide 3-9)
